Measured values: PubChem BioAssay AID1437 (PCMD, 2008)
Active and inactive are the calls of the source. The rule behind the calls is not given here.

molecular target: DNA repair protein RAD51 homolog 1 (Homo sapiens) (UniProt Q06609); experiment: concentration-dependent blocking of RAD51 activity – biochemical, homologous recombination, fluorescence, second set, dose response (AID 1437); conditions: RAD51 homologous recombination biochemical assay
Sequence (Q06609 whole entry, looked up): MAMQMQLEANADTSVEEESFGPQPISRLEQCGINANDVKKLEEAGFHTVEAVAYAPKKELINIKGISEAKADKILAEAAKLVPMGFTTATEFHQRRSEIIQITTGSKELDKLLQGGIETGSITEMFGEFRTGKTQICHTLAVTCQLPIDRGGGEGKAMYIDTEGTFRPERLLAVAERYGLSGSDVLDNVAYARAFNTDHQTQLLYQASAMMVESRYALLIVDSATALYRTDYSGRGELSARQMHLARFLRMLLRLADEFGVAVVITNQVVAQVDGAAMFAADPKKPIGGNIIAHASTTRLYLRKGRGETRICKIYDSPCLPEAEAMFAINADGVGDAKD

Row | IC50 | Structure (SMILES)
1 | 24.8 µM | COC(=O)c1ccc(=O)c2nc3/c(=C/O)c(O)cc(=O)c3[nH]c12
2 | > 53 µM (inactive) | Cc1ccc(C2/C(=C(\O)c3ccc4c(c3)OCCO4)C(=O)C(=O)N2CCCN(C)C)o1 (stereo not drawn)
3 | > 53 µM (inactive) | Cc1cc(C)cc(N2C(=O)CC(Sc3nnnn3-c3ccccc3)C2=O)c1 (stereo not drawn)
